The values that follow come from US20140135272A1, “NOVEL ZINC FINGER-LIKE PEPTIDE COMPOSITIONS AS POTENT AGENTS IN CANCER PREVENTION AND TREATMENT” (priority 2011, published 2014).

What all share (type): in vivo, nude mice
The subject of one assay is BCC cells. Put plainly: Example 2: peptide pre-injection plus boost injection, BCC cell inoculation, tumor volumes. The note with it: peptide 2 mM, 100 μl i.v. per week for 3 weeks before BCC inoculation; boost per week for 3 weeks 2 months later; vs H2O control. The procedure:
(§1) In the following examples, 8-week nude mice were used as host subjects to perform in vivo experiments. The nude mice were placed in room temperature and suitable humidity, and supplied with sterile water and standard food for 2 consecutive weeks before performing experiments. Then, the nude mice were injected with zinc finger-like peptide and tumor cells. The detailed processes for the experiments are described as follows.
(§2) First, manually synthesized zinc finger-like peptide (Genemed Synthesis Inc., San Antonio, Tex., USA) was resuspended in degassed purified water to obtain 1-5 mM of zinc finger-like peptide solution (100 μl). Herein, the solution for suspending the zinc finger-like peptide is not particularly limited. Preferably, the zinc finger-like peptide is resuspended in degassed purified water, in order to prevent the self-polymerization of the zinc finger-like peptide and loss its ability to inhibit tumor cell growth.
(§3) In the present experimental group, zinc finger-like peptide with sequence shown in SEQ ID NO: 1 was injected into nude mice.
Nude mice were injected with an intravenous injection of peptide (2 mM, 100 μl PBS) via tail veins per week for 3 consecutive weeks, followed by inoculating BCC cells (2 million cells/100 μl PBS) at both the right and left flanks. 2 months later, boost injection of peptide was carried out per week for 3 consecutive weeks. […]

For assay [1], the system named is malignant melanoma B16F10. Put plainly: Example 3: peptide pre-injection, then malignant melanoma B16F10 inoculation, tumor volumes. As to conditions: peptide 2 mM, 100 μl sterile water i.v. per week for 3 weeks before B16F10 inoculation; vs H2O control. Here is the method: as §1, §2
Herein, zinc finger-like peptide with sequence shown in SEQ ID NO: 1 is injected into nude mice.
With this experimental group, nude mice received an intravenous injection of peptide (2 mM, 100 μl sterile water) via tail veins per week for 3 consecutive weeks, followed by inoculation of malignant melanoma B16F10 (2 million cells/100 μl PBS) at both the right and left flanks. The tumor volumes (mm^3) were observed daily during the whole experiment. […]

The test system of assay [2] is malignant melanoma B 16F10. Put plainly: Example 4: peptide variants pre-injected, then malignant melanoma B16F10 inoculation, tumor volumes and death. As to conditions: peptide 2 mM, 100 μl i.v. per week for 2 weeks before B16F10 inoculation. The procedure: as §1, §2
Nude mice received an intravenous injection of peptide (2 mM, 100 μl) via tail veins per week for 2 consecutive weeks, followed by inoculating malignant melanoma B 16F10 (2 million cells/100 μl PBS) at both the right and left flanks. The tumor volumes (mm^3) were observed daily during the whole experiment.
as §3
In the present experimental group, zinc finger-like peptide with sequence shown in SEQ ID NO: 1, in which the fifth amino acid, serine was phosphorylated, and injected into nude mice.
In the present experimental group, zinc finger-like peptide with sequence shown in SEQ ID NO: 6 was injected into nude mice.
In the present experimental group, zinc finger-like peptide with sequence shown in SEQ ID NO: 6, in which the fourth amino acid serine was phosphorylated, and injected nude mice.
In the control group, H2O (100 μl) was injected into nude mice.

Assay [3] has as its system breast carcinoma MDA-MB-468. Kind of assay: Example 7: peptide pre-injection, then breast carcinoma MDA-MB-468 inoculation, tumor volumes. The note with it: peptide 3 mM, 100 μl i.v. per week for 3 weeks before MDA-MB-468 inoculation; vs H2O control. The procedure: as §1, §2, §3
Nude mice were injected with an intravenous injection of peptide (3 mM, 100 μl) via tail veins per week for 3 consecutive weeks, followed by inoculating breast carcinoma MDA-MB-468 (2 million cells/100 μl medium) at both the right and left flanks. The tumor volumes (mm^3) were observed daily during the whole experiment. […]

The subject of assay [4] is malignant prostate cancer DU145 cells. Kind of assay: Example 9: peptide pre-injection, malignant prostate cancer DU145 cells inoculated three months later, tumor volumes. As to conditions: peptide 2 mM, 100 μl i.v. per week for 3 weeks, vs H2O control. Here is the method: as §1, §2, §3
Nude mice were injected with an intravenous injection of peptide (2 mM, 100 μl) via tail veins per week for 3 consecutive weeks, followed by inoculating malignant prostate cancer DU145 cells (2 million cells/100 μl medium) at both the right and left flanks three months later. […]

Assay [5] concerns prostatic epithelial cells PZ-HPV-7. Kind of assay: Example 10: peptide pre-injection, then prostatic epithelial cells PZ-HPV-7 inoculation, tumor volumes. As to conditions: peptide 2 mM, 100 μl i.v. per week for 3 weeks; PZ-HPV-7 inoculated on the 20th and 90th day; vs H2O control. The procedure:
as §1, §2, §3
Nude mice were injected with an intravenous injection of peptide (2 mM, 100 μl) via tail veins per week for 3 consecutive weeks, followed by inoculating prostatic epithelial cells PZ-HPV-7 (2 million cells/100 μl medium) at both the right and left flanks on the 20th day and the 90th day. […]

In assay [6] the test system is malignant glioma U87-MG cells. Put plainly: Example 11: peptide pre-injection, malignant glioma U87-MG cells inoculated 1 month later, tumor volumes. The note with it: for growth and proliferation of tumor cells (tumor volumes): 100 μl i.v. per week for 3 weeks, U87-MG inoculated 1 month later, vs H2O control. The procedure: as §1, §2
The process of the present control group was the same as that of the experimental group, except that the zinc finger-like peptide of the experimental group was substituted with H2O (100 μl) in the present control group. The result is shown in FIG. 11A, which is a curve representing the tumor volumes of mice.
as §3
Nude mice were injected with an intravenous injection of peptide (2 mM, 100 μl) via tail veins per week for 3 consecutive weeks, followed by inoculating malignant glioma U87-MG cells (2 million cells/100 μl medium) at both the right and left flanks 1 month later. The tumor volumes (mm^3) were observed daily during the whole experiment. The result is shown in FIG. 11B, which is a curve representing the tumor volumes of mice.
The process of the present control group was the same as that of the experimental group 1, except that the concentration of the zinc finger-like peptide is 4 mM. The result is shown in FIG. 11C, which is a curve representing the tumor volumes of mice.

Regarding “RRSSSCK [SEQ ID NO: 1, zinc finger-like peptide, manually synthesized]”, the “tumor growth (tumor volumes)” value in the assay with BCC cells is “can prevent and inhibit the growth of cancer cell”; in assay [1] it was “can inhibit the growth of skin melanoma on nude mice”. The “skin cancer completely cured after” value in assay [2] amounted to 115 days. Moreover, in assay [2] (vs H2O control), the “tumor growth / activity on skin cancer treatment” value is on record as “can effectively inhibit the growth of tumor cells”. The “growth and proliferation of tumor cells (tumor volumes)” value is “the growth and proliferation of tumor cells were not observed” in assay [3]; “the growth and proliferation of tumor cells were not observed” in assay [4]; “the growth and proliferation of tumor cells were not observed” in assay [5]; “slower than that observed in the control group” in assay [6] (peptide 2 mM); “slower than that observed in the control group” in assay [6] (peptide 4 mM). Also, in assay [6] (2 mM vs 4 mM peptide, U87-MG), the “concentration dependence of suppression on tumor cell growth” value was “the suppression on tumor cell growth was getting significant as the concentration of the zinc finger-like peptide increased”.
